# Results reported in ChEMBL document CHEMBL1133403 (Bioorg Med Chem Lett, 2000).
# Key:
# Androgen receptor = biological target: T1, Androgen receptor (Homo sapiens, UniProt P10275); assay: Cross-reactivity as binding to human androgen receptor (hAR); format: functional
# T1 sequence (P10275 whole entry): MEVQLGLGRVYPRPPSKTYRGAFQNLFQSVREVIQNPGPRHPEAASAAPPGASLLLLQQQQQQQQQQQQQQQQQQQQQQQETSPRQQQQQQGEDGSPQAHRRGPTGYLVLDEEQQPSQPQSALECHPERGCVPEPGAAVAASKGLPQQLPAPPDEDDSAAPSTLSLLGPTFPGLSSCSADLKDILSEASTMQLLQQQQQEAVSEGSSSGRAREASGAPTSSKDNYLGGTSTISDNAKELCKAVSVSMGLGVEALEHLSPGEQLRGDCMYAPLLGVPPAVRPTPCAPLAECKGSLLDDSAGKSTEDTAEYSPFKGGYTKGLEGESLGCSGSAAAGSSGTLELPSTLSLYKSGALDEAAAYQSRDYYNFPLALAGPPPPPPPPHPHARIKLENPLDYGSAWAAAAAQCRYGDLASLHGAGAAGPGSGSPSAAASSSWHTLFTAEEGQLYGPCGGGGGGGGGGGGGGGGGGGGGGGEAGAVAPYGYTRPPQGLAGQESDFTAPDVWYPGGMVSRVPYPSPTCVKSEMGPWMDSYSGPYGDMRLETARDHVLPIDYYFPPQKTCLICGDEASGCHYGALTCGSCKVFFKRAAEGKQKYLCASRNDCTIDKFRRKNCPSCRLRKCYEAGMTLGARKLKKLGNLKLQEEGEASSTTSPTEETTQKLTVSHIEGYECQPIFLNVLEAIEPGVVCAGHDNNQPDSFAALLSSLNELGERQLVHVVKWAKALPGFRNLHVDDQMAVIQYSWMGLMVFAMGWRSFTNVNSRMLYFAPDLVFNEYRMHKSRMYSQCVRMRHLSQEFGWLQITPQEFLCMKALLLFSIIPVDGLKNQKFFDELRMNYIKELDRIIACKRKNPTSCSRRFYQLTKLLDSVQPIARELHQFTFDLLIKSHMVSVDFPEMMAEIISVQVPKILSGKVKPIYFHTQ
# [1] = biological target: T2, Glucocorticoid receptor (Homo sapiens) (UniProt P04150); assay: Percent inhibition of glucocorticoid receptor transcriptional activity at Dexamethasone EC50; format: functional
# T2 sequence (whole entry): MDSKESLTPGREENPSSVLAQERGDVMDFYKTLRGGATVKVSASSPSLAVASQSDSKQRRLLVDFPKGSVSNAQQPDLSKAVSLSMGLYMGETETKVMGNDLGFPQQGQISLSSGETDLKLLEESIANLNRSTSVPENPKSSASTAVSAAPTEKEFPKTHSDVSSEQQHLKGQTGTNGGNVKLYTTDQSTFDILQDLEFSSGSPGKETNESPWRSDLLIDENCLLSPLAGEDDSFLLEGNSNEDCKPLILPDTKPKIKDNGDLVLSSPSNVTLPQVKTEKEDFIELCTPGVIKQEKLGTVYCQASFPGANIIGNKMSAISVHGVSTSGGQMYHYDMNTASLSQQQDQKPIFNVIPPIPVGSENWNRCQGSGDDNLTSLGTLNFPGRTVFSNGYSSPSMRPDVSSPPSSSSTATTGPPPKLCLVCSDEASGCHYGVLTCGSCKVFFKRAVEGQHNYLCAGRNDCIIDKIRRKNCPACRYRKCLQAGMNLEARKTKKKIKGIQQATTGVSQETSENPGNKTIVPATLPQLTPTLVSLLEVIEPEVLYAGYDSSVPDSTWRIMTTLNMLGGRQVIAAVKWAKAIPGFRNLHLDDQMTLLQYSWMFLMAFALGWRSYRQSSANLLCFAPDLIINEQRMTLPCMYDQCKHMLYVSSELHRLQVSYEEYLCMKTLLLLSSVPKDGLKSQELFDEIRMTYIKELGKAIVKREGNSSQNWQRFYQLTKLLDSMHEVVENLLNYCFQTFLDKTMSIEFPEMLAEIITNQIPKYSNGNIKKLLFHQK
# Glucocorticoid receptor = biological target: T3, Glucocorticoid receptor (Homo sapiens, UniProt P04150); assay: Cross-reactivity as binding to human glucocorticoid receptor (hGR); format: functional
# T3 sequence (P04150 whole entry): T2 sequence (whole entry)
# [2] = biological target: T4, Mineralocorticoid receptor (Homo sapiens, UniProt P08235); assay: Cross-reactivity as binding to human mineralocorticoid receptor (hMR); format: functional
# T4 sequence (P08235 whole entry): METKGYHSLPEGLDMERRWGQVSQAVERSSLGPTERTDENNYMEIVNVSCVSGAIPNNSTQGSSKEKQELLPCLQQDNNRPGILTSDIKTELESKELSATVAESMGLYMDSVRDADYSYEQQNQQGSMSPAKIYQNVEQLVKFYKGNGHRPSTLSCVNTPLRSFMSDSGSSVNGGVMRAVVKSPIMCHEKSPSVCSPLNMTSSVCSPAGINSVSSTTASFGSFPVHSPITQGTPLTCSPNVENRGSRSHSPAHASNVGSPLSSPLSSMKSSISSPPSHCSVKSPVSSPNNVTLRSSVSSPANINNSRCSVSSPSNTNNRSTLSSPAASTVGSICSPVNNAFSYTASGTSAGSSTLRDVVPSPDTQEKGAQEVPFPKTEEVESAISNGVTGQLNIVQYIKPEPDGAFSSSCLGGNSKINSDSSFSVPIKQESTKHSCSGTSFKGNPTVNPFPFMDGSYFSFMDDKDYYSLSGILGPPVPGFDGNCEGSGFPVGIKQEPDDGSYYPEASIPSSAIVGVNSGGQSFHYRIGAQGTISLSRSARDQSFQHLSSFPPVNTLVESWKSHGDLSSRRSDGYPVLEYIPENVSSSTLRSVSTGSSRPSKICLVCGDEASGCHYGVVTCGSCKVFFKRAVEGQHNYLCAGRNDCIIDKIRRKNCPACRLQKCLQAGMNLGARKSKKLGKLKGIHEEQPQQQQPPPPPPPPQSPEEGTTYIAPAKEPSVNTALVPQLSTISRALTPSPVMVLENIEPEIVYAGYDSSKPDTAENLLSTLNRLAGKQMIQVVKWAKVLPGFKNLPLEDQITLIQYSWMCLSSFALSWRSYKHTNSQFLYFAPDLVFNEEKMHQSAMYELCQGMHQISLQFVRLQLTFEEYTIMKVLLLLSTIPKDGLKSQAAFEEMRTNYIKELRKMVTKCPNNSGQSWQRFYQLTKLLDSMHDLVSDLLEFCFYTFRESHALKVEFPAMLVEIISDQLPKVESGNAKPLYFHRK
# [3] = biological target: T5, Mineralocorticoid receptor (Homo sapiens) (UniProt P08235); assay: Percent inhibition of mineralocorticoid receptor transcriptional activity at aldosterone EC50; format: functional
# T5 sequence (whole entry): T4 sequence (P08235 whole entry)
# Progesterone receptor [4] = biological target: T6, Progesterone receptor (Homo sapiens, UniProt P06401); assay: Human progesterone receptor (hPR) agonist activity in T47D human breast cancer cell line; format: functional, cell-based
# T6 sequence (P06401 whole entry): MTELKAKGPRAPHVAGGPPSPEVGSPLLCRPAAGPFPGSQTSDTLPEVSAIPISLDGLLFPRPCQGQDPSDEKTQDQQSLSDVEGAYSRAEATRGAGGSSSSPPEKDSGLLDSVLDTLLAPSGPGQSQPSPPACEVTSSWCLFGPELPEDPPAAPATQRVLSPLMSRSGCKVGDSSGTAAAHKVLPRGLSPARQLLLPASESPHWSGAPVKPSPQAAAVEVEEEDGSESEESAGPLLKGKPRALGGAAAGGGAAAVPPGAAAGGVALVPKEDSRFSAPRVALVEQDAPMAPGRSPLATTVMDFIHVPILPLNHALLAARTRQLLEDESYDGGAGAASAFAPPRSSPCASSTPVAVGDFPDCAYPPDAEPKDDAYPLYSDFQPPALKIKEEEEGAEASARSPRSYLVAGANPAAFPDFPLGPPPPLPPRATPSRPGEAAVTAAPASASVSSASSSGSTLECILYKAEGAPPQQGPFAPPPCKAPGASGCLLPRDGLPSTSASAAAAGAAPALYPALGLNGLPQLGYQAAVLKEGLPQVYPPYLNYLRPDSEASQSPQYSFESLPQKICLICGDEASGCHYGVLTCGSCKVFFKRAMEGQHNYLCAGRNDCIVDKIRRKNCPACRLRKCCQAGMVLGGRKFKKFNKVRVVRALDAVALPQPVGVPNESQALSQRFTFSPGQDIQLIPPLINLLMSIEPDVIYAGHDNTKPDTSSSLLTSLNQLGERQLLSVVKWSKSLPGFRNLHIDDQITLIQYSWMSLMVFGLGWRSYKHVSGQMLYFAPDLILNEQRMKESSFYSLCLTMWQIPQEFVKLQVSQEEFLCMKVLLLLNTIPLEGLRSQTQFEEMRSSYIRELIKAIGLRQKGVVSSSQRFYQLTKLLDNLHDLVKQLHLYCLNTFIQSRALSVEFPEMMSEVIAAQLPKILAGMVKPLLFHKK
# Progesterone receptor [5] = biological target: T6, Progesterone receptor; assay: Human progesterone receptor (hPR) agonist activity expressed in CV-1 cells; format: functional, cell-based
# Progesterone receptor [6] = biological target: T6, Progesterone receptor; assay: Antagonist activity against human progesterone receptor (hPR) in T47D human breast cancer cell line; format: functional, cell-based
# Progesterone receptor [7] = biological target: T6, Progesterone receptor; assay: Binding affinity against human progesterone receptor (hPR) in a competitive binding assay
smiles,measurement,setting,value
CC1=CC(C)(C)Nc2ccc(-c3csc(C#N)c3)cc21,IC50,Androgen receptor,0.494 µM
same,Efficacy,[1],83%
same,IC50,Glucocorticoid receptor,2.6 µM
same,IC50,[2],2.05 µM
same,Efficacy,[3],88%
same,EC50,Progesterone receptor [4],0.245 µM
same,EC50,Progesterone receptor [5],1.8 µM
same,IC50,Progesterone receptor [6],0.106 µM
same,Ki,Progesterone receptor [7],0.0035 µM
